Measured values reported in patent publication US20230103444A1 (The Regents of the University of Colorado, a Body Corporate, priority 2020, published 2023).
Entries after “also recorded” stand apart in the source; their conditions may differ.

Assays:
[1] = system: E-cadherin promoter activity; assay: EcadPro-RFP reporter 3D high-content imaging in tumor organoids; type: cell-based; conditions: 72 h; for EC50: Homo sapiens, SW-620, read-out: EC50 upregulation of E-cadherin promoter activity, SW620 tumor organoids
Experimental: After validating hits 5-7 against CHD1L mediated TCF transcription, the ability of these compounds to reverse EMT and other malignant properties in CRC were evaluated. E-cadherin and vimentin are putative biomarkers for the epithelial and mesenchymal phenotypes, respectively. [McDonald et al., 2015] Loss of E-cadherin and gain of vimentin are also clinical biomarkers of poor prognosis. [Yun et al., 2014; Richardson et al., 2012; Dhanasekaran et al., 2001; Kashiwagi et al., 2010; Toiyama et al., 2013] Accordingly, lentiviral promoter driven reporters for E-cadherin (pCDH1-EcadPro-RFP) and vimentin (pCDH1-VimPro-GFP) were developed, which faithfully report E-cadherin and vimentin protein expression, respectively. [Zhou et al., 2016; Abraham et al., 2019] SW620 cells transduced with either EcadPro-RFP or VimPro-GFP were cultured as tumor organoids for 72 h, reaching a diameter of 600 μm. Tumor organoids were treated with compounds 5-7 for an additional 72 h to determine the effective concentration 50 percent (EC50) for modulating promoter activity. Changes in promoter expression was quantified using a 3D confocal image […] based high-content analysis algorithm (FIG. 2A-2B). [Zhou et al., 2016; Abraham et al., 2019]
CHD1L has been reported to confer anti-apoptotic activity by inhibiting activation of caspase-dependent apoptosis. [Li et al., 2013; Sun et al., 2016] Additionally, reversal or inhibition of EMT is known to restore apoptotic activity of cancer cells. [Lu et al., 2014] To determine if CHD1L inhibitors reverse EMT prior to induction of cell death, E-cadherin expression by EcadPro-RFP reporter activity was monitored and cytotoxicity was measured using the CellTox™ Green assay. Cells were treated with CHD1L inhibitors for 72 h and imaged every 2 h.
Stable VimPro-GFP or EcadPro-RFP SW620 reporter cells were generated using pCDH imPro-GFP-EF1-puro virus or pCDH-EcadPro-mCherry-EF1-puro virus as previously reported. [Zhou et al., 2016; Abraham et al., 2019] The stable fluorescently labeled reporter cells were used to generate tumor organoids as described herein. Tumor organoids were treated with CHD1L inhibitors at 10 μM for an additional 72 h. Following treatment, tumor organoids were stained with 16 μM of Hoechst 33342 for 1 h (nuclei stain). Images were taken with a 5× air objective. Z-stacks were set at 26.5 μm apart for a total of 15 optical slices. Imaging and high-content analysis were performed using an Opera Phenix™ and Harmony® software (PerkinElmer, Hopkinton, Mass.). Nuclei were identified within each layer and cells were found with either GFP or mCherry channel. The fluorescence intensities of each channel were calculated and thresholds were set based on the background intensities. Percentages of GFP or mCherry RFP positive cells were calculated and normalized to the DMSO treated group.
3D High-Content Imaging and Analysis of EMT Dual-Reporter Activity. Tumor organoids were imaged using the Opera Phenix high-content screening system (PerkinElmer) in confocal mode utilizing a 10× air objective (NA 0.3). The following excitation and emission (Ex/Em) wavelengths were employed: RFP (561/570-630) and GFP (488/500-550). Organoids were also imaged in Brightfield to segment and perform high-content analysis of dual reporter specific fluorescence intensity. RFP fluorescent signal correlates with E-Cadherin promoter activity, while GFP fluorescent signal is correlates with vimentin promoter activity. Both fluorescent signals were quantified and normalized as previously described. (Esquer, et al., 2021)

[2] = system: HCT-116 and DLD1CHD1L-OE cells; assay: Clonogenic colony formation after 24 h pretreatment (CSC stemness); type: cell-based, human; conditions: colonies over 10 days
Experimental: To assess CHD1L inhibitors for their ability to suppress CSC stemness, HCT-116 or CHD1L overexpressing DLD1 cell lines were pre-treated in monolayer cultures for 24 h with vehicle control (0.5% DMSO) or CHD1L inhibitors at the concentrations indicated in FIG. 2C. Pretreated viable cells were plated at 1,000 cells/well in 6-well plates or 200 cells/well in a 24-well plates. Colonies were analyzed using the IncuCyte® S3 2018A (Sartorius, France) software (with the following parameters modified from default: (1) for HCT116 cells segmentation adjustment=0.6; Min area (μm2)=3×104; Max area (μm2)=1.6×106; Max eccentricity=0.9; (2) for DLD1CHD1L OE cells segmentation adjustment=1; Min area (μm2)=1×104; Max area was not constrained; Max eccentricity=0.95. Experiments were replicated 2× (n=2 for each experiment).

[3] = system: SW620 tumor organoids; assay: Synergy studies with SN38 (LOEWE synergy scores); type: cell-based, human; set-up: key to LOEWE Synergy Score: % response beyond expectation; <-10 antagonism, -10–10 additive, >10 synergy; conditions: for LOEWE Synergy Score: compound at its IC50 (6: 5 μM; 6.3, 6.11: 3 μM)
Experimental: Cell based cytotoxicity dose response and combination studies. […] Plates were then incubated for 3 days before treatment.
(e.g., synergy score 20 corresponds to 20% of response beyond expectation). According to our experience, the synergy scores near 0 gives limited confidence on synergy or antagonism.
When the synergy score is: • Less than −10: the interaction between two drugs is likely to be antagonism; • From −10 to 10: the interaction between two drugs is likely to be additivity; • Larger than 10: the interaction between two drugs is likely to be synergy.

Row | Structure (SMILES) | EC50 [1] [µM] | inhibition of CSC stemness (clonogenic colony formation), in words [2] | E-cadherin expression before onset of cytotoxicity ([1]; EcadPro-RFP reporter and CellTox Green, imaged every 2 h, relative to DMSO) | inhibition of CSC stemness (clonogenic colony formation), in words ([2]; listed as 6.0) | LOEWE Synergy Score ([3]; SN38 0.64 nM) | LOEWE Synergy Score ([3]; SN38 16 nM) | LOEWE Synergy Score ([3]; SN38 80 nM) | LOEWE Synergy Score ([3]; SN38 400 nM) | LOEWE Synergy Score ([3]; SN38 2000 nM) | LOEWE Synergy Score ([3]; SN38 10000 nM) | LOEWE Synergy Score ([3]; SN38 […]) | synergism with irinotecan (and SN38), in words ([3]; killing SW620 tumor organoids) | upregulation of E-cadherin promoter activity (EcadPro-RFP), in words ([1]; SW620 or HCT116 tumor organoids) | potency of SN38 combination relative to SN38 alone ([3]; killing SW620 tumor organoids) [fold]
1 | COc1ccc(-c2nc(S(=O)(=O)c3ccccc3)c(S(C)(=O)=O)o2)cc1 [Compound 5] | 11.9 ± 0.3 | more potent dose dependent inhibition | – | – | – | – | – | – | – | – | – | – | – | –
2 | Cc1cc(Nc2ccc(NC(=O)Cc3cccs3)cc2)nc(N2CCCC2)n1 [Compound 6, N-(4-((6-methyl-2-(pyrrolidin-1-yl)pyrimidin-4-yl)amino)phenyl)-2-(thiophen-2-yl)acetamide] | 11.4 ± 0.3 | – | significant increase in E-cadherin expression prior to induction of cytotoxicity | more potent dose dependent inhibition; also recorded: significantly inhibits CSC stemness | −5 | 35 | 45 | 41 | 28 | 16 | 36 | synergism | – | –
3 | Cc1cc(Nc2ccc(NC(=O)c3c[nH]c4ccccc34)cc2)nc(N2CCCC2)n1 [Compound 6.3, N-(4-((6-methyl-2-(pyrrolidin-1-yl)pyrimidin-4-yl)amino)phenyl)-1H-indole-3-carboxamide] | – | significantly inhibits clonogenic colony formation | – | – | 4 | 36 | 54 | 48 | 35 | 25 | 31 | synergism | upregulation of E-cadherin promoter activity | 150
